Reference: patent publication US9056840B2, “Coelenterazine analogues and coelenteramide analogues” (JNC Corporation, priority 2010, dated 2015)
Entries after “also recorded” stand apart in the source; their conditions may differ.

Tests used:
Gaussia luciferase = assay: Substrate specificity and luminescence activity of Gaussia luciferase; assay type: biochemical; conditions: measured for 10 seconds, coelenterazine = 100
Procedure: Gaussia luciferase was purified by the method described in Japanese Patent Application KOKAI No. 2008-099669 and provided for use. After 1 μl of Gaussia luciferase (0.024 mg/ml) was dissolved in 100 μl of phosphate buffered saline (manufactured by Sigma Inc.) containing 0.01% Tween 20 (manufactured by Sigma Inc.) and 10 mM EDTA, 1 μl of a solution of coelenterazine or its analogue (1 μg/μl) in ethanol was mixed with the solution to start the luminescence reaction. The luminescence activity was measured for 10 seconds on a luminometer luminescencer-PSN AB2200 (manufactured by Atto Co., Ltd.). The luminescence activity was determined by repeating the measurement described above 3 times and expressed in terms of the maximum luminescence intensity (Imax) of luminescence activity.

apoaequorin [1] = target: T1, apoaequorin (Aequorea victoria, UniProt P07164); assay: Fluorescence spectra of fluorescent proteins formed from semi-synthetic aequorins by Ca2+; assay type: physicochemical; conditions: for Maximum fluorescence wavelength λmax (nm) / Relative fluorescence intensity (rlu): fluorescent protein generated by calcium from semi-synthetic aequorin, excitation 330 nm, 25° C.; for fluorescence spectra of fluorescent proteins versus emission spectra of semi-synthetic aequorins, in words: same coelenterazine analogue
T1 construct: purchased Chisso Corporation
T1 sequence (P07164 other isoform, or with tags, fused parts or gaps with the stated changes): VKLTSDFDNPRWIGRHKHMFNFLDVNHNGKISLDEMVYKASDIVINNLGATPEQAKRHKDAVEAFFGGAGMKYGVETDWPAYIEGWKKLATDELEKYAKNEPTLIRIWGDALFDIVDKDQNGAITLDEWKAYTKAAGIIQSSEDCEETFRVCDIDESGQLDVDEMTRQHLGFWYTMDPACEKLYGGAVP
Procedure: The fluorescence spectra of novel fluorescent proteins formed by the Ca^2+-triggerd reaction from semi-synthetic aequorins in EXAMPLE 3 were measured at 25° C. in a quartz cell (10 mm light path length) using a Jasco FP-6500 spectrofluorometer (excitation wavelength: 330 nm, emission/excitation bandwidth: 3 nm; response: 0.5 sec, scan speed, 1000 nm/min). The fluorescence spectra measured were corrected.

apoaequorin [2] = target: T1, apoaequorin; assay: Luminescence patterns of semi-synthetic aequorins, half decay time; assay type: biochemical; conditions: for Half decay time: semi-synthetic aequorin, time in which luminescence becomes half of maximum, patterns measured for 60 seconds
Procedure: A solution of the regenerated semi-synthetic aequorin was diluted to 10-fold with 20 mM Tris-HCl (pH 7.6) containing 0.1% BSA (manufactured by Sigma, Inc.), 0.01 mM EDTA and 150 mM NaCl. The dilution was dispensed into a 96-well microplate (Nunc #236108) at 5 μl/well. The luminescence reaction was triggered by injecting 50 mM Tris-HCl (pH 7.6) containing 50 mM calcium chloride solution at 100 μl/well. The luminescence patterns for 60 seconds were measured to determine half decay time of the luminescence (a time period in which the luminescence becomes half of the maximum luminescence intensity).

[3] = target: T2, 19 kDa protein from Oplophorus luciferase (Oplophorus gracilirostris, UniProt Q9GV45); assay: Substrate specificity and luminescence activity of the 19 kDa protein from Oplophorus luciferase; assay type: biochemical; conditions: measured for 60 seconds, coelenterazine = 100
T2 construct: made in house
T2 sequence (Q9GV45 28-196): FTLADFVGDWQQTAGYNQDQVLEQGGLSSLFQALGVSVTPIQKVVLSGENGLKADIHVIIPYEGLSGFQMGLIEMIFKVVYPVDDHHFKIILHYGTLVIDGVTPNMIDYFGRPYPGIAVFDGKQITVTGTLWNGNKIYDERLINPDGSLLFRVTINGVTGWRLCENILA
Procedure: The 19 kDa protein from Oplophorus luciferase was purified by the method described in Inouye, S. and Sasaki, S., Protein Express. Purif. (2007) 56: 261-268 and provided for use.
(§1) After 1 μl of the 19 kDa protein (2.3 mg/ml) from Oplophorus luciferase containing 1 mM DTT was dissolved in 100 μl of 30 mM Tris-HCl (pH 7.6) containing 10 mM EDTA, 1 μl of a solution of coelenterazine or its analogue (1 μg/μl) in ethanol was added to the solution to start the luminescence reaction, and the luminescence activity was measured for 60 seconds on a luminometer luminescencer-PSN AB2200 (manufactured by Atto Co., Ltd.). The luminescence activity was determined by repeating the measurement described above 3 times and expressed in terms of the maximum luminescence intensity (Imax) of luminescence activity.

Renilla luciferase = target: T3, Renilla luciferase (Renilla reniformis, UniProt P27652); assay: Substrate specificity and luminescence activity of Renilla luciferase; assay type: biochemical; conditions: measured for 10 seconds, coelenterazine = 100
T3 construct: made in house
T3 sequence (P27652 1-311): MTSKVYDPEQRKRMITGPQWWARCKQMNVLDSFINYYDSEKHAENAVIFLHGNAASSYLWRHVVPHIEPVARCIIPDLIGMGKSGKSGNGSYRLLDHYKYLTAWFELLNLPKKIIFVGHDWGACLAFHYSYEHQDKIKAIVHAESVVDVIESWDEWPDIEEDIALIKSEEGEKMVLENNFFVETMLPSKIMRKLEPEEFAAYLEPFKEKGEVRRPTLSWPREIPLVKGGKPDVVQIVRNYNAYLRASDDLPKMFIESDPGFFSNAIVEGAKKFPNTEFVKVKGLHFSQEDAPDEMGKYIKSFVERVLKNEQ
Procedure: Renilla luciferase was purified by the method described in Inouye, S. & Shimomura, O. Biochem. Biophys. Res. Commun. (1997) 233: 349-353, and used for assay.
as §1, with “Renilla luciferase (0.45” for “the 19 kDa protein (2.3”, “mg/ml)” for “mg/ml) from Oplophorus luciferase containing 1 mM DTT”, “reaction. The” for “reaction, and the”, “10” for “60”, “measurement of luminescence activity” for “measurement”

apoaequorin [4] = target: T1, apoaequorin; assay: Luminescence spectra of semi-synthetic aequorins; assay type: biochemical; conditions: semi-synthetic aequorin, calcium added, 22 to 25° C.
Procedure: In a quartz cell with light path length of 10 mm, 1 ml of 50 mM Tris-HCl (pH 7.6) containing 1 mM EDTA and 100 μl (100 μg protein) of a solution of the regenerated semi-synthetic aequorin were charged. Next, 100 μl of 50 mM Tris-HCl (pH 7.6) containing 0.1 ml of 10 mM calcium chloride solution was added thereto to start the luminescence reaction. The spectra were measured on a spectrofluorimeter (FP-6500, manufactured by Jasco Co., Ltd.) with the excitation light source turned off. The measurement conditions were bandwidth: 20 nm, response: 0.5 second, scan speed: 2000 nm/min and 22 to 25° C. The luminescence spectra measured were corrected.

apoaequorin [5] = target: T1, apoaequorin; assay: Calcium standard curve with semi-synthetic aequorins; assay type: biochemical; conditions: FIG. 3; Imax versus calcium concentration
Procedure: In 9 ml of 50 mM Tris-HCl (pH 7.6), 1 ml of 1 g/L calcium carbonate standard solution (manufactured by Wako Pure Chemicals) was diluted to prepare 10^−3 M calcium carbonate solution. One milliliter of the resulting 10^−3 M calcium carbonate solution was taken and added to 9 ml of 50 mM Tris-HCl (pH 7.6) to prepare 10^−4 M calcium carbonate solution. Next, 3 ml of the resulting 10^−4 M calcium carbonate solution was taken and added to 6 ml of 50 mM Tris-HCl (pH 7.6) to prepare […] calcium carbonate solution. One milliliter from the 10^−4 M calcium carbonate solution obtained was added to 9 ml of 50 mM Tris-HCl (pH 7.6) to prepare 10^−5 M calcium carbonate solution. Then, 3 ml of the resulting 10^−5 M calcium carbonate solution was taken and added to 6 ml of 50 mM Tris-HCl (pH 7.6) to prepare 3×10^−5 M calcium carbonate solution. A dilution series was prepared by successively repeating the procedures described above to give the 10^−3 M to 10^−8 M calcium standard solutions.
In 5 ml of 50 mM Tris-HCl (pH 7.6) containing 10 mM DTT and 30 mM EDTA, 5 mg of recombinant apoaequorin (manufactured by Chisso Corporation) was dissolved and 100 μg of coelenterazine analogue dissolved in ethanol in an amount of 1.2-fold equivalent was added to the solution. The mixture was allowed to stand at 4° C. overnight to convert into semi-synthetic aequorin. The resulting semi-synthetic aequorin was concentrated using Amicon Ultra-4 (manufactured by Millipore, Inc., molecular weight cut-off: 10,000) to remove an excessive of coelenterazine analogue. The mixture was then washed 3 times with 3 ml of 30 mM Tris-HCl (pH 7.6) containing 0.05 mM EDTA to give the solution of semi-synthetic aequorin containing 0.05 mM EDTA. This semi-synthetic aequorin solution (2.5 mg/ml) was diluted with 20 mM Tris-HCl (pH 7.6) containing 0.1% BSA (manufactured by Sigma), 0.01 mM EDTA and 150 mM NaCl.
The calcium standard solution prepared as above was dispensed into a 96-well microplate (Nunc #236108) at 50 μl/well and 10 μl of the diluted semi-synthetic aequorin solution was injected into 50 μl of various concentration of calcium standard solution. The luminescence intensity was measured for 60 seconds on a luminescence plate reader Centro LB960 (manufactured by Berthold) and expressed in terms of the maximum intensity (Imax) of luminescence. The luminescence intensity was measured on each semi-synthetic aequorin in the same procedures. Semi-synthetic aequorins for practically use were chosen by the maximum intensity (Imax) of luminescence and the calcium standard curve of semi-synthetic aequorin was prepared.

| Compound | Luminescence activity Imax (%) (Gaussia luciferase) | Maximum fluorescence wavelength λmax (nm) (apoaequorin [1]) | Relative fluorescence intensity (rlu) (apoaequorin [1]) | Half decay time (apoaequorin [2]) [s] | Luminescence activity Imax (%) [3] [%] | Luminescence activity Imax (%) (Renilla luciferase) | Maximum luminescence wavelength λmax (nm) (apoaequorin [4]) | fluorescence spectra of fluorescent proteins versus emission spectra of semi-synthetic aequorins, in words (apoaequorin [1]) | half decay time of luminescence compared to coelenterazine (native aequorin), in words (apoaequorin [2]) | calcium standard curve with semi-synthetic aequorin, in words (apoaequorin [5]) |
| --- | --- | --- | --- | --- | --- | --- | --- | --- | --- | --- |
| Oc1ccc(Cc2nc3c(Cc4ccccc4)nc(-c4ccc(O)cc4)cn3c2O)cc1 [Coelenterazine] | 100.0 | 473.0 | 63.3 | 0.81 | 100.0 | 100.0 | 472.5 |  |  |  |
| O=c1c(Cc2ccc(O)cc2)nc2c(-c3ccccc3)[nH]c(-c3ccc(O)cc3)cn1-2 [Compound 3a, 2-(4-Hydroxybenzyl)-6-(4-hydroxyphenyl)-8-phenylimidazo[1,2-a]pyrazin-3(7H)-one] | 0.00 | 501.5 | 118.1 | 15.7 | 0.4 | 0.00 | 494.0 | different luminescence spectra and fluorescence spectra | markedly prolonged; also recorded: longer half decay time | calcium standard curve can be prepared |
| O=c1c(Cc2ccc(O)cc2)nc2c(/C=C/c3ccccc3)[nH]c(-c3ccc(O)cc3)cn1-2 [Compound 3b] | 0.01 | 580.0 | 10.3 | 0.96 | 0.07 | 0.00 | 447.0 | markedly different; also recorded: different luminescence spectra and fluorescence spectra | longer half decay time | calcium standard curve can be prepared |
| O=c1c(Cc2ccc(O)cc2)nc2c(-c3cccc4ccccc34)[nH]c(-c3ccc(O)cc3)cn1-2 [Compound 3d, 2-(4-Hydroxybenzyl)-6-(4-hydroxyphenyl)-8-(naphthalen-1-yl)imidazo[1,2-a]pyrazin-3(7H)-one] | 0.00 | 482.5 | 61.8 | 1.10 | 0.3 | 0.00 | 480.0 |  | longer half decay time | calcium standard curve can be prepared |
| O=c1c(Cc2ccc(O)cc2)nc2c(-c3ccc4ccccc4c3)[nH]c(-c3ccc(O)cc3)cn1-2 [Compound 3e, 2-(4-Hydroxybenzyl)-6-(4-hydroxyphenyl)-8-(naphthalen-2-yl)imidazo[1,2-a]pyrazin-3(7H)-one] | 0.00 | 468.5 | 28.0 | 3.42 | 0.07 | 0.00 | 507.0 | markedly different; also recorded: different luminescence spectra and fluorescence spectra | markedly prolonged; also recorded: longer half decay time | calcium standard curve can be prepared |
| O=c1c(Cc2ccc(O)cc2)nc2c(-c3cccs3)[nH]c(-c3ccc(O)cc3)cn1-2 [Compound 3f, 2-(4-Hydroxybenzyl)-6-(4-hydroxyphenyl)-8-(thiophen-2-yl)imidazo[1,2-α]pyrazin-3(7H)-one] | 0.00 | 525.0 | 38.5 | >60 | 0.1 | 0.00 | 515.0 | different luminescence spectra and fluorescence spectra | markedly prolonged; also recorded: longer half decay time | calcium standard curve can be prepared |
